Data as given in patent publication US20240156971A1, “METHODS AND SORTILIN BINDING CONJUGATE COMPOUNDS FOR TARGETING CANCER STEM CELLS” (TRANSFERT PLUS, SOCIÉTÉ EN COMMANDITE, priority 2021, published 2024).
Square brackets hold non-standard residues; d marks the D form. Ends that are not written are not given here. Alexa Fluor 488 = Alexa Fluor 488 C5-maleimide dye; Nle = CCCC[C@H](N)C(=O)O

Key:
[1] = system: ovarian hOCSC xenografts; assay: hOCSC xenografts treated with single agents or combined with carboplatin; type: in vivo, mice; conditions: docetaxel 10 mg/kg; TH1902 23 mg/kg; paclitaxel 10 mg/kg; carboplatin 40 mg/kg; day 18
Description: Mice bearing ovarian hOCSC xenografts were treated with vehicle, docetaxel, paclitaxel, TH1902 or carboplatin, and other groups of mice were administered carboplatin in combination with either docetaxel, paclitaxel or TH1902. To minimize the risk of side effects resulting from combining treatments, the dosages used for each drug were reduced to the following: docetaxel 10 mg/kg; TH1902 23 mg/kg (equivalent to the docetaxel dosage); paclitaxel 10 mg/kg; carboplatin 40 mg/kg (unchanged).

[2] = target: T1, Sortilin (Homo sapiens, UniProt Q99523); assay: Uptake of TH19P01-Alexa Fluor 488 by hBCSCs in the presence of competing Sortilin ligands; type: cell-based; conditions: 200 nM fluorescent peptide, 2 h, 10 μM neurotensin, 50 μM TH19P01 or 1 nM progranulin
T1 construct: host or cells: human triple-negative breast cancer stem cells (hBCSCs)
T1 sequence (Q99523 78-831): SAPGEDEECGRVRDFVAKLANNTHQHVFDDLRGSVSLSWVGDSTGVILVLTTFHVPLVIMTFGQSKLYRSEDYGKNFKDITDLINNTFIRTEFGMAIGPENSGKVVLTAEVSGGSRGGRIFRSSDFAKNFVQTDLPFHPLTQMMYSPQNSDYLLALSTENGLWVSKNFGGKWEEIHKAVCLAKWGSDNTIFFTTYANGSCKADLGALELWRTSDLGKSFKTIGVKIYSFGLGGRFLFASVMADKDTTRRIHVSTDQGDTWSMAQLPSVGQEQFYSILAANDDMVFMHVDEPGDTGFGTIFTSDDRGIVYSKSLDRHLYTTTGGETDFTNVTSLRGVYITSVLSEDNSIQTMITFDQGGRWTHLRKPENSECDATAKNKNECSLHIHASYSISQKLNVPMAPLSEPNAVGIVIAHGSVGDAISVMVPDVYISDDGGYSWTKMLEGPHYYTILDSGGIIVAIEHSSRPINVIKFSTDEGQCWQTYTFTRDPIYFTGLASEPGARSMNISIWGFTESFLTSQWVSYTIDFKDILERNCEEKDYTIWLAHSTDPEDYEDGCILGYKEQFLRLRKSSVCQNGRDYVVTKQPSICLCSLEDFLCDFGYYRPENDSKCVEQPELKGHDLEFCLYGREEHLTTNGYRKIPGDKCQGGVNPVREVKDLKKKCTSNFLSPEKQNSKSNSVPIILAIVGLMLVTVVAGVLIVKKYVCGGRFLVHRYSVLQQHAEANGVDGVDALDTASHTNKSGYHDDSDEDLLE

[3] = system: hBCSCs; assay: Internalization of TH19P01-Alexa Fluor 488 by hBCSCs (flow cytometry); type: cell-based, human; conditions: 200 nM, 2 hours, vs vehicle-treated cells
Description: Assessment of Intracellular Fluorescence with TH19P01-Alexa Fluor™ 488. hBCSC were grown in 12-well plates in complete media for 24 hours. […] In another experiment, siScrambled- or siSORT1-transfected cells were washed with HBSS and incubated in HBSS in the presence or absence of 200 nM Alexa Fluor™ 488-labeled TH19P01. For both types of experiments, after 2 hours of incubation at 37° C., cells were washed with HBSS, trypsinized, washed again and fluorescence assessed in the FL1 channel using a C6 Accuri™ flow cytometer (BD Biosciences, San Jose, CA).

Molecule | inhibition of tumor growth, single agent [1] | decrease of intracellular fluorescence (internalization of TH19P01-Alexa Fluor 488) by competing agent [2] | further results
N.N.O=C([O-])C1(C(=O)[O-])CCC1.[Pt+2] [carboplatin] | practically equivalent to that seen with docetaxel |  | 
progranulin [reference compound] |  | decrease significantly (p<0.01) by about half | 
GVRAKAGVRN(Nle)FKSESY (GVRAKAGVRN[Nle]FKSESY) [TH19P01] |  | decrease significantly (p<0.01) by about half | 
CC(=O)O[C@H]1C(=O)[C@@]2(C)[C@H]([C@H](OC(=O)c3ccccc3)[C@]3(O)C[C@H](OC(=O)[C@H](O)[C@@H](NC(=O)c4ccccc4)c4ccccc4)C(C)=C1C3(C)C)[C@]1(OC(C)=O)CO[C@@H]1C[C@@H]2O [Paclitaxel, paclitaxel] | practically equivalent to that seen with docetaxel |  | 
TH19P01-Alexa Fluor™ 488 (GVRAKAGVRN[Nle]FKSESYC(Alexa Fluor 488)) |  |  | fluorescent signal in cells versus background fluorescence [3]: an order of magnitude greater than the background fluorescence
